The values below come from patent US8283310B2, “Hepatitis C virus inhibitors” (priority 2008, dated 2012).

As usually defined, the IC50 is the concentration that gives 50% inhibition.

The structures appear in SMILES notation.

The target in assay [1] is T1, HCV NS3/4A protease complex (Hepatitis C virus genotype 1a, UniProt P27958, C1454S/C1711G).
T1 construct: DNA encoding the recombinant HCV NS3/4A protease complex (amino acids 1027 to 1711) for these strains; inferred from pET21b vector and Ni-NTA purification; made in house; host or cells: Escherichia coli BL21 (DE3), pET21b
Kind of assay: FRET peptide assay to monitor HCV NS3/4A proteolytic activity. Type of assay: biochemical. As to conditions: recombinant NS3/4A protease complex, RET S1 FRET peptide substrate; strain not given. The source says:
HCV NS3 protease complexes, derived from the BMS strain, H77 strain or J4L65 strain, were generated, as described below. These purified recombinant proteins were generated for use in a homogeneous assay (see below) to provide an indication of how effective compounds of the present disclosure would be in inhibiting HCV NS3 proteolytic activity.
The H77 and J4L6S strains were used for production of recombinant NS3/4A protease complexes. DNA encoding the recombinant HCV NS3/4A protease complex (amino acids 1027 to 1711) for these strains was manipulated as described by P. Gallinari et al. (see Gallinari P, Paolini C, Brennan D, Nardi C, Steinkuhler C, De Francesco R. Biochemistry. 38(17):5620-32, (1999)). Briefly, a three-lysine solubilizing tail was added at the 3′-end of the NS4A coding region. The cysteine in the P1 position of the NS4A-NS4B cleavage site (amino acid 1711) was changed to a glycine to avoid the proteolytic cleavage of the lysine tag. Furthermore, a cysteine to serine mutation was introduced by PCR at amino acid position 1454 to prevent the autolytic cleavage in the NS3 helicase domain. […]

Assay [2] relates to HCV genotype 1a replicon (H77) in HUH-7 cells. Kind of assay: HCV replicon luciferase reporter assay, genotype 1a. The conditions noted are these: Hepatitis C virus, Huh-7, 72 h, read-out: 1a/1b EC50 (nM): 1a. Type of assay: cell-based. The source says:
A stable HCV genotype 1a replicon cell line was generated with a similar genomic map as described above for the 1b replicon cell line. An additional adaptive substitution at position 1496 (proline to leucine) was also introduced (Lemm J A, Liu M, Rose R E, Fridell R, O′Boyle Ii D R, Colonno R, Gao M. Intervirology. 2005 48(2-3):183-91). The sequence of the H77 infectious clone (see above for details) was used to generate the sub-replicon which also contained the selectable marker G418 and the Renilla luciferase gene.
(§1) The HCV replicon luciferase assay was developed to monitor the inhibitory effects of compounds described in the disclosure on HCV viral replication. […] After 3 days incubation at 37° C., cells were analyzed for Renilla Luciferase activity using the EnduRen as substrate (Promega cat 4E6485). […] The plates were incubated for 2 hrs at 37° C. and then read immediately for 30 seconds on the Viewlux Imager (PerkinElmer) using a luminescence program. […] The fluorescence signal from each well was read, with an excitation wavelength at 525/10 nm and an emission wavelength of 598/10 nm, on the Viewlux Imager.
(§2) The percentage inhibition was calculated using the formula below:
(§3) [formula] The values were graphed and analyzed using XLfit to obtain the EC50 value.
For orientation: Replicon systems follow genome replication, usually without infectious particles.

In assay [3] the test system is HCV strain 1b replicon in HUH-7 cells. The assay is described as follows: HCV replicon luciferase reporter assay, genotype 1b. Type of assay: cell-based. The conditions noted are these: Hepatitis C virus, Huh-7, 72 h, read-out: 1a/1b EC50 (nM): 1b.
Description: An HCV replicon whole cell system was established as described by Lohmann V, Korner F, Koch J, Herian U, Theilmann L, Bartenschlager R., Science 285(5424):110-3 (1999). This system enabled us to evaluate the effects of our HCV Protease compounds on HCV RNA replication. Briefly, using the HCV strain 1b sequence described in the Lohmann paper (Assession number: AJ238799), an HCV cDNA was synthesized by Operon Technologies, Inc. (Alameda, Calif.), and the full-length replicon was then assembled in plasmid pGem9zf(+) (Promega, Madison, Wis.) using standard molecular biology techniques. […]
as §1, §2, §3

T1 sequence (P27958 1027-1711 C1454S/C1711G, one chain of several): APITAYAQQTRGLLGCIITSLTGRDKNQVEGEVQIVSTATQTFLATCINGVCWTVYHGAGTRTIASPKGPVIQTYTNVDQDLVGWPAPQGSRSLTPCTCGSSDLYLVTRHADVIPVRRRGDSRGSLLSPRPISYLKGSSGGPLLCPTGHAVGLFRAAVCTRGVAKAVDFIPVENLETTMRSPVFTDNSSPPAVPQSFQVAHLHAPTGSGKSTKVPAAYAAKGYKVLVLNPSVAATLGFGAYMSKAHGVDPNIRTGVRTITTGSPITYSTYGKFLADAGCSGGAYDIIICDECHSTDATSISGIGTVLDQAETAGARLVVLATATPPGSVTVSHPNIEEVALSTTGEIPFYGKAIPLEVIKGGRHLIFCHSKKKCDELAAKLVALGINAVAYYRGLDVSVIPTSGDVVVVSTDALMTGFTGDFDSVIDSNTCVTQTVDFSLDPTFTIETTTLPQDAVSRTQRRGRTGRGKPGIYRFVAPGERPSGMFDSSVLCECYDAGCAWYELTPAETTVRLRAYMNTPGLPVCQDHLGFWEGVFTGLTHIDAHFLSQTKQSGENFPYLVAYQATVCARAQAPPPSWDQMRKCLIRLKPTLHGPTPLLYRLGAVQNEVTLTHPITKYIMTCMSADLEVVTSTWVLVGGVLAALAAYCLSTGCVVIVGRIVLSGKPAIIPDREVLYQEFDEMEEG

For `CC(C)(C)OC(=O)N[C@H](C(=O)N1C[C@]2(c3ccc(-c4ccccc4)cc3)C[C@H]1C(=O)N[C@@]1(C[C@H]1C(F)F)C(=O)NS(=O)(=O)C1(CCCCC/C=C\CS2)CC1)C(C)(C)C` [Compound 2], the IC50 in assay [1] came out at 4 nM. Further, the EC50 worked out at 95 nM in assay [2] and 33 nM in assay [3].
In the case of `CC(C)(C)OC(=O)N[C@H](C(=O)N1C[C@]2(c3ccc(-c4ccccc4)cc3)C[C@H]1C(=O)N[C@@]1(C[C@H]1C(F)F)C(=O)NS(=O)(=O)C1(CCCCC/C=C/CS2)CC1)C(C)(C)C` [Compound 1], in assay [1], the IC50 came out at 2 nM. Besides, the EC50 in assay [2] was 49 nM; in assay [3], 21 nM.
